The values below come from ChEMBL document CHEMBL3232928, “Fragment-to-hit-to-lead discovery of a novel pyridylurea scaffold of ATP competitive dual targeting type II topoisomerase inhibiting antibacterial agents” (J Med Chem, 2013).

Data set [1] in a line: Octanol-phosphate buffer partition coefficient, log D of the compound at pH 7.4 after 1 hr by shake flask method. Format: physicochemical.
A short description of data set [2]: Antibacterial activity against wild type Haemophilus influenzae Rd KW20 ATCC 51907 assessed as growth inhibition after 18 to 24 hrs by CLSI broth microdilution method. Format: functional.
Data set [3] in a line: Inhibition of ATPase activity in Escherichia coli ParE by ammonium molybdate/malachite green-based absorbance assay.
Data set [4] can be described thus: Inhibition of ATPase activity in Escherichia coli ParC/ParE by ammonium molybdate/malachite green-based absorbance assay.
The test system of data set [5] is Escherichia coli. Put plainly: Antibacterial activity against tolC efflux pump deficient Escherichia coli W3110 assessed as growth inhibition after 18 to 24 hrs by CLSI broth microdilution method. The data set is classed as functional. (In broth dilution the organism is exposed to a series of concentrations in liquid medium.)
Data set [6] concerns Staphylococcus aureus. Nature of the data set: Antibacterial activity against methicillin-sensitive wild type Staphylococcus aureus assessed as growth inhibition after 18 to 24 hrs by CLSI broth microdilution method. The data set is classed as functional.
Data set [7] has as its target DNA gyrase subunit B (Staphylococcus aureus, UniProt P0A0K8). Nature of the data set: Inhibition of ATPase activity in Staphylococcus aureus GyrB tetramer in presence of Escherichia coli GyrA by ammonium molybdate/malachite green-based absorbance assay.
Data set [8] relates to Escherichia coli. Nature of the data set: Antibacterial activity against wild type Escherichia coli W3110 assessed as growth inhibition after 18 to 24 hrs by CLSI broth microdilution method. Format: functional.
For data set [9], the system named is Moraxella catarrhalis. Nature of the data set: Antibacterial activity against wild type Moraxella catarrhalis ATCC 43617 assessed as growth inhibition after 18 to 24 hrs by CLSI broth microdilution method. Format: functional.
The nature of data set [10]: Inhibition of ATPase activity in Escherichia coli GyrA/GyrB by ammonium molybdate/malachite green-based absorbance assay.
Data set [11] in a line: Antibacterial activity against Streptococcus pneumoniae D39 NCTC 7466 assessed as growth inhibition after 18 to 24 hrs by CLSI broth microdilution method. The data set is classed as functional.
Data set [12] concerns Staphylococcus aureus. Put plainly: Antibacterial activity against methicillin-resistant and […] Staphylococcus aureus assessed as growth inhibition after 18 to 24 hrs by CLSI broth microdilution method. The data set is classed as functional.
Data set [13] is described as follows: Solubility of the compound. The data set is classed as physicochemical.

pIC50: −log10 of the molar value. In brackets after ≈: the same amount, converted by molar mass.

In general, logD refers to lipophilicity at a set pH, counting ionised and neutral species. A higher logD goes with higher lipophilicity. In general, pIC50 refers to −log10 of the IC50, conventionally taken in molar units. As usually defined, the solubility is the dissolved amount per volume that the medium holds.

Sequence of DNA gyrase subunit B (P0A0K8 whole entry): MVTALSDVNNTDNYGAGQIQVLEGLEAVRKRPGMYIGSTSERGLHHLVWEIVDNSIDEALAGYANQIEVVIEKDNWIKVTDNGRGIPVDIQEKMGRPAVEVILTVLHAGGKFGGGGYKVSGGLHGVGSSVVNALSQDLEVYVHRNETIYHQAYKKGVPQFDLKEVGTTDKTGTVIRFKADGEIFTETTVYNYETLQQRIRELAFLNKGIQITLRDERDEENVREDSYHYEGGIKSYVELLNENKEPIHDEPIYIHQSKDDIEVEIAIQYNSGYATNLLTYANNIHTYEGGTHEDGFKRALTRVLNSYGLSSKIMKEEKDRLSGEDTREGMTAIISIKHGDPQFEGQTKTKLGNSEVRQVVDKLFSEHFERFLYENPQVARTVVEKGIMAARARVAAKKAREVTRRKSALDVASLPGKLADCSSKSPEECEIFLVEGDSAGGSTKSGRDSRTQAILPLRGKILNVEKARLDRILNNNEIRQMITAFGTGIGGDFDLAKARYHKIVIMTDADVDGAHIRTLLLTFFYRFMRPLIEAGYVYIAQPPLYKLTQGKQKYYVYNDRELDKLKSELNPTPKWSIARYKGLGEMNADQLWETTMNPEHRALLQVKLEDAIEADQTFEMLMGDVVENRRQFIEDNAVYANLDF

For `CCNC(=O)Nc1cc(-c2cccnc2)c(-c2cncc(C(=O)O)c2)cn1`, the logD at 1 h in data set [1] was -1.5. Besides, the MIC in [2], in data set [5], in data set [6], in data set [8], in data set [9] and in data set [11] was > 64 µg/mL in each case. For the same compound, the pIC50 in data set [3] was 6.51; in [4], 5.00; in [7], 6.57; in [10], 6.52.
For `O=C(Nc1ccccn1)NC1CC1`, the pIC50 in [7] was 3.00.
`CCNC(=O)Nc1cc(-c2noc(C)n2)c(-c2cncc(C(=O)O)c2)cn1`: the logD at 1 h in data set [1] was -2.1. Further, the MIC in data set [2], in [5], in [6], in data set [8] and in data set [11] was > 64 µg/mL in each case. The compound further had a pIC50 in data set [3] of 6.82.
`CCOC(=O)Nc1ccccn1`: in data set [7], the pIC50 was < 3.00.
In the case of `CCNC(=O)Nc1ccc(-c2cccnc2)cn1`, the MIC in [2] is > 48 µg/mL; in [12], > 64 µg/mL; in data set [5] it was > 48 µg/mL; in [6], > 48 µg/mL; in data set [8], > 48 µg/mL; in data set [9] it was > 48 µg/mL. Besides, the pIC50 in data set [3] was 5.85; in [4], 4.10; in data set [7] it was 5.57; in [10], 5.70.
As to `CCNC(=O)Nc1ccc(Oc2cccc(C(=O)O)c2)cn1`, the MIC in [2], in data set [5], in data set [6], in data set [8], in [9] and in data set [11] was > 64 µg/mL each time. In addition, the pIC50 in data set [3] is 4.80; in data set [4] it was < 3.70; in [7], 5.00; in data set [10], 5.36.
With `CNC(=O)Nc1ccccn1`, the pIC50 in data set [7] was 4.00.
For `CCNC(=O)Nc1ccccc1`, the pIC50 in data set [7] is < 3.00.
As for `CCNC(=O)Nc1cc(-c2ccccc2)c(-c2cncc(C(=O)O)c2)cn1`, the logD at 1 h in [1] was -0.31. For the same compound, the MIC in [2] was > 64 µg/mL; in data set [5], 36 µg/mL (≈ 99.3 µM); in [6], > 64 µg/mL; in data set [8], > 64 µg/mL; in data set [9], > 64 µg/mL; in data set [11], 4.5 µg/mL (≈ 12.4 µM). Besides, the pIC50 in data set [3] is 6.77; in [4], 5.70; in data set [7] it was 7.22; in data set [10], 7.02.
In the case of `O=C(NCC(F)(F)F)Nc1ccccn1`, in [7], the pIC50 is < 3.00.
Take `CCNC(=O)Nc1ccc(-c2nc3cccc(C(=O)O)c3s2)cn1`: the MIC in [2] is 16 µg/mL (≈ 46.7 µM); in data set [5] it was 8 µg/mL (≈ 23.4 µM); in [6], > 64 µg/mL; in data set [8], > 64 µg/mL; in data set [9] it was 8 µg/mL (≈ 23.4 µM); in data set [11] it was 2 µg/mL (≈ 5.84 µM). In addition, the pIC50 was 5.68 in data set [4] and 7.00 in [7].
Consider `CCNC(=O)Nc1ccc(-c2cccc(C(=O)O)c2)cn1`, for which the MIC in [2] is 59 µg/mL (≈ 207 µM); in data set [5], > 64 µg/mL; in data set [6], > 64 µg/mL; in data set [8] it was > 64 µg/mL; in data set [9] it was 42 µg/mL (≈ 147 µM); in [11] it was 21 µg/mL (≈ 73.6 µM). The pIC50 in data set [3] was 5.70; in data set [4], 4.16; in data set [7], 5.47; in [10], 5.33.
For `CCNC(=O)Nc1nc2ccccc2[nH]1`, in data set [7], the pIC50 was 4.19.
With `CCN(CC)C(=O)Nc1ccccn1`, the pIC50 in data set [7] was 4.42.
In turn, `CCNC(=O)Nc1cc(-c2nc(C(C)(C)C)cs2)c(-c2cncc(C(=O)O)c2)cn1` displayed a logD at 1 h in [1] of 0.12. Moreover, the MIC was 43 µg/mL (≈ 101 µM) in data set [2]; 11 µg/mL (≈ 25.9 µM) in data set [5]; > 64 µg/mL in data set [6]; > 64 µg/mL in [8]; 43 µg/mL (≈ 101 µM) in data set [9]; 0.66 µg/mL (≈ 1.55 µM) in [11]. For the same compound, the pIC50 in data set [3] was 7.14; in data set [4] it was 5.64; in data set [7] it was 7.52; in data set [10] it was 7.92.
Regarding `CCNC(=O)Nc1ncccn1`, in [7], the negative logarithm of the IC50 (pIC50) was 4.10.
For the compound `CCCNC(=O)Nc1ccccn1`, the pIC50 in data set [7] was < 3.00.
Take `CCNC(=O)Nc1cc(-c2ccncc2)c(-c2cncc(C(=O)O)c2)cn1`: the logD at 1 h in data set [1] was -0.82. For the same compound, the MIC in data set [2], in data set [5], in data set [6], in data set [8], in [9] and in data set [11] was > 9 µg/mL each time. The pIC50 in data set [3] was 6.51; in data set [4] it was 4.96; in data set [7], 6.49; in data set [10], 6.62.
Consider `CCNC(=O)Nc1ccccn1`, for which the negative-log IC50 (pIC50) in data set [7] was 4.49.
`CCNC(=O)Nc1cc(-c2nc(C(F)(F)F)cs2)c(-c2nc3cccc(C(=O)O)c3s2)cn1` returned a logD at 1 h in data set [1] of 0.73. The MIC in [2] is 12 µg/mL (≈ 24.3 µM); in [12], 6.1 µg/mL (≈ 12.4 µM); in data set [5] it was 0.8 µg/mL (≈ 1.62 µM); in data set [6], 3.1 µg/mL (≈ 6.28 µM); in [8], > 64 µg/mL; in data set [9], 1.6 µg/mL (≈ 3.24 µM). Moreover, in data set [11], the MIC was determined as 0.05 µg/mL (≈ 0.101 µM). Further, the negative logarithm of the IC50 (pIC50) was > 8.00 in data set [3], 6.44 in data set [4], > 8.00 in [7] and > 8.00 in [10].
On to `CCNC(=O)Nc1cc(Br)c(-c2cncc(C(=O)O)c2)cn1`, for which the logD at 1 h in data set [1] is -1. The MIC was > 9 µg/mL in [2]; > 9 µg/mL in data set [5]; > 9 µg/mL in data set [6]; > 9 µg/mL in data set [8]; 4.6 µg/mL (≈ 12.6 µM) in [11]. Besides, the pIC50 in [3] was 7.28; in [4], 5.32; in data set [7], 6.52; in data set [10], 7.17.
For the compound `C#CCNC(=O)Nc1ccccn1`, in [7], the pIC50 was 3.46.
Regarding `CCNC(=O)Nc1cc(-c2nc(C(F)(F)F)cs2)c(-c2ncc(C(=O)O)s2)cn1`, the MIC is > 64 µg/mL in data set [2]; 44 µg/mL (≈ 99.2 µM) in [12]; 22 µg/mL (≈ 49.6 µM) in data set [5]; > 64 µg/mL in data set [6]; > 64 µg/mL in data set [8]; 44 µg/mL (≈ 99.2 µM) in [9]. In [11], the MIC came to 2.8 µg/mL (≈ 6.31 µM). Moreover, the pIC50 in data set [3] was > 8.00; in data set [4], 6.03; in data set [7], > 8.00; in data set [10], > 8.00.
For `CCNC(=O)Nc1cc(Cl)c(-c2cncc(C(=O)O)c2)cn1`, the logD at 1 h in data set [1] is -1.1. In addition, the MIC in [2] was > 64 µg/mL; in [5], > 64 µg/mL; in data set [6], > 64 µg/mL; in data set [8] it was > 64 µg/mL; in data set [9] it was > 64 µg/mL; in [11], 4 µg/mL (≈ 12.5 µM). The pIC50 in data set [3] was 7.66; in data set [4] it was 5.37; in data set [7] it was 6.89; in data set [10], 7.24.
Take `CCNC(=O)Nc1ccc(-c2ccc(C(=O)O)cc2)cn1`: the MIC in data set [2] is 16 µg/mL (≈ 56.1 µM); in data set [5], 16 µg/mL (≈ 56.1 µM); in [6], > 64 µg/mL; in data set [8], > 64 µg/mL; in [9], 4 µg/mL (≈ 14 µM). Moreover, the pIC50 in data set [3] is 7.27; in data set [4] it was 4.55; in [7], 6.06; in data set [10], 5.80.
As for `CCNC(=O)Nc1ccc(-c2ncc(C(N)=O)s2)cn1`, the MIC is 32 µg/mL (≈ 110 µM) in data set [2]; > 64 µg/mL in data set [12]; 16 µg/mL (≈ 54.9 µM) in data set [5]; 64 µg/mL (≈ 220 µM) in [6]; > 64 µg/mL in [8]; 8 µg/mL (≈ 27.5 µM) in data set [9]. Moreover, the MIC in data set [11] is 4 µg/mL (≈ 13.7 µM). For the same compound, the pIC50 in data set [3] is 6.42; in data set [4] it was 4.57; in [7] it was 6.26; in [10], 6.25.
In the case of `CCNC(=O)Nc1ccc(-c2nc3cccc(C(N)=O)c3s2)cn1`, the MIC in data set [2] was > 64 µg/mL; in data set [5], > 64 µg/mL; in data set [6], > 64 µg/mL; in data set [8] it was > 64 µg/mL; in [9], > 64 µg/mL; in data set [11], 1 µg/mL (≈ 2.93 µM). Also, the pIC50 in [3] is 7.15; in data set [4] it was 4.92; in [7], 7.41; in [10], 7.03. Also, in [13], the solubility is < 1 µM.
For `CCNC(=O)Nc1ccc(-c2nc(C(=O)O)cs2)cn1`, the MIC in data set [2], in data set [6], in [8], in [9] and in data set [11] was > 64 µg/mL throughout. Also, the pIC50 in data set [7] was 5.44.
For the compound `CCNC(=O)Nc1ccc(-c2cncc(C(=O)O)c2)cn1`, the MIC in data set [2], in data set [5], in data set [6], in data set [8], in data set [9] and in [11] was > 64 µg/mL throughout. In addition, the pIC50 in data set [3] was 6.40; in [4] it was 4.62; in [10] it was 5.85.
Turning to `CCNC(=O)Nc1ccc(-c2ncc(C(=O)O)s2)cn1`, the MIC is > 64 µg/mL in data set [2]; > 64 µg/mL in [6]; > 64 µg/mL in [8]; > 64 µg/mL in data set [9]; 64 µg/mL (≈ 219 µM) in data set [11]. For the same compound, the pIC50 is 6.96 in data set [3], 5.06 in data set [4], 6.57 in [7] and 6.62 in data set [10].
